Data taken from US20210188843A1, “QUINOLINE COMPOUNDS AND THEIR PREPARATION AND USE AS ANTIMALARIAL AGENTS” (The United States of America,as represented by the …, priority 2018, published 2021).
Converted amounts (≈) assume the structure as drawn. Read-outs that look alike come from different tables or passages of the source.

Assays:
[1] = Microsomal stability (rat); format: in vitro ADME; details: rat microsomes
[2] = test system: Asexual parasites of P. falciparum strain 3D7; assay: In vitro drug activity on asexual parasites (SYBR Green assay); format: cell-based; details: Plasmodium falciparum, P. falciparum 3D7 asexual stage, 72 h, read-out: Asexual EC50
Method: Cell culture. Asexual parasites of P. falciparum strain 3D7 were cultured as described previously [Trager W, et al., Journal of Parasitology 2005, 91: 484-486]. Stage III-V gametocytes were selected and enriched with 3-day treatment with 50 mM N-acetylglucosamine (NAG) and the following Percoll density gradient centrifugation after gametocyte production [Tanaka T Q, et al., Molecular and Biochemical Parasitology, 2011, 177: 160-163]. Gametocytes of HB3 and Dd2 strains were produced and then set up for assay in a similar process. HepG2 cells (ATCC, cat. no. 77400) were cultured in 175-cm^2 tissue culture flasks with 30 ml growth medium at 37° C. in a 5% CO2 humidified atmosphere. Growth medium was made with Dulbecco's Modified Eagle Medium with 10% fetal bovine serum (FBS). Growth medium was replaced every other day and cells were passed at 75% confluence.
Asexual parasites of P. falciparum strain 3D7 were cultured as described previously (Trager, W. et al., J. Parasitol. 2005, 91(3): 484-486). Drug activity on asexual stage parasites was tested using a SYBR Green assay as described previously (Eastman, R. T. et al., Antimicrob. Agents Chemother. 2013, 57(1): 425-435; Smilkstein, M. et al., Antimicrob. Agents Chemother. 2004, 48(5): 1803-1806). Briefly, parasites were diluted to 0.5% parasitemia in complete culture medium with 2% hematocrit and drugs diluted in DMSO (<0.5%) and were loaded into a 96-well plate (200 μl/well). No drug and RBC alone wells were included as positive and background controls, respectively, and each testing condition was examined in duplicated. After 72 h incubation under the standard culture condition and a freeze-thaw lysis step at −80° C. and room temperature, 100 μl/well of lysis buffer containing SYBR Green I was added to the parasite culture and incubated for 30 min at room temperature. The fluorescence of each well was measured at 520 nm following excitation at 490 nm using a FLUOstar Optima™ microplate reader (BMG Labtech).
Compounds were screened against gametocytes and asexual parasites as described in Examples 1 and 2.

Solubility pH 7.4 = format: physicochemical; details: aqueous buffer
[3] = Table 1, read-out: Microsomal Stability (rat) T1/2

SMILES	half-life [1, 3] [min]	EC50 ([2]; Table 1) [nM]	solubility (Solubility pH 7.4; Table 1) [µg/mL]	half-life ([1]; Table 3, read-out: Microsomal Stability (rat) T1/2) [min]	EC50 ([2]; Table 3) [nM]	solubility (Solubility pH 7.4; Table 3) [µg/mL]
Cc1ccc(S(=O)(=O)/N=c2\n(C)c3cnc4ccc(-c5ccc(Cl)cc5)cc4c3n2-c2cc(C#N)ccc2C)cc1 [Compound 16, (E)-N-(8-(4-chlorophenyl)-1-(5-cyano-2-methylphenyl)-3-methyl-1,3-dihydro-2H-imidazo[4,5-c]quinolin-2-ylidene)-4-methylbenzenesulfonamide]	10.4	240	< 1	–	–	–
Cn1c(=N)n(-c2ccccc2)c2c3cc(-c4ccc(Cl)cc4)ccc3ncc21 [Compound 63, 8-(4-chlorophenyl)-3-methyl-1-phenyl-1,3-dihydro-2H-imidazo[4,5-c]quinolin-2-imine]	> 30	1040	5.7 (≈ 14.8 µM)	–	–	–
Cc1ccc(C#N)cc1-n1c(=N)n(C)c2cnc3ccc(-c4ccc(C(N)=O)s4)cc3c21 [Compound 1, 5-(1-(5-cyano-2-methylphenyl)-2-imino-3-methyl-2,3-dihydro-1H-imidazo[4,5-c]quinolin-8-yl)thiophene-2-carboxamide]	> 30	8.36	14.2 (≈ 32.4 µM)	–	–	–
Cc1cc(N2CCN(C(=O)OC(C)(C)C)CC2)c(C#N)cc1-n1c(=N)n(C)c2cnc3ccc(-c4ccc(Cl)cc4)cc3c21 [Compound 15, tert-butyl 4-(4-(8-(4-chlorophenyl)-2-imino-3-methyl-2,3-dihydro-1H-imidazo[4,5-c]quinolin-1-yl)-2-cyano-5-methylphenyl)piperazine-1-carboxylate]	> 30	591	< 1	–	–	–
Cn1c(=N)n(-c2nccc(N)n2)c2c3cc(-c4ccc(Cl)cc4)ccc3ncc21	–	–	–	> 30	1860	< 1
Cc1ccccc1-n1c(=N)n(C)c2cnc3ccc(-c4ccc(Cl)cc4)cc3c21 [Compound 81, 8-(4-chlorophenyl)-3-methyl-1-(o-tolyl)-1,3-dihydro-2H-imidazo[4,5-c]quinolin-2-imine]	> 30	1640	> 39	–	–	–
Cc1ccc(C#N)cc1-n1c(=N)n(C)c2cnc3ccc(-c4ccc5c(c4)CC(=O)N5)cc3c21 [Compound 3, 3-(2-imino-3-methyl-8-(2-oxoindolin-5-yl)-2,3-dihydro-1H-imidazo[4,5-c]quinolin-1-yl)-4-methylbenzonitrile]	> 30	20.3	3.6 (≈ 8.1 µM)	–	–	–
Cc1c(C#N)cccc1-n1c(=N)n(C)c2cnc3ccc(-c4ccc(Cl)cc4)cc3c21 [Compound 69, 3-(8-(4-chlorophenyl)-2-imino-3-methyl-2,3-dihydro-1H-imidazo[4,5-c]quinolin-1-yl)-2-methylbenzonitrile]	> 30	207	< 1	–	–	–
Cc1ccc(-n2c(=N)n(C)c3cnc4ccc(-c5ccc(Cl)cc5)cc4c32)cc1C#N [Compound 70, 5-(8-(4-chlorophenyl)-2-imino-3-methyl-2,3-dihydro-1H-imidazo[4,5-c]quinolin-1-yl)-2-methylbenzonitrile]	> 30	443	< 1	–	–	–
Cc1ccc(C#N)cc1-n1/c(=N/S(N)(=O)=O)n(C)c2cnc3ccc(-c4ccc(N)nc4)cc3c21 [Compound 101, (8-(6-aminopyridin-3-yl)-1-(5-cyano-2-methylphenyl)-3-methyl-1,3-dihydro-2H-imidazo[4,5-c]quinolin-2-ylidene)sulfonamide]	> 30	3.07	2.2 (≈ 4.54 µM)	–	–	–
Cn1cc(-n2c(=N)n(C)c3cnc4ccc(-c5ccc(Cl)cc5)cc4c32)cn1 [Compound 13, 8-(4-chlorophenyl)-3-methyl-1-(1-methyl-1H-pyrazol-4-yl)-1,3-dihydro-2H-imidazo[4,5-c]quinolin-2-imine]	> 30	477	> 38	–	–	–
